Experimental data taken from patent publication US20220326125A1, “BIOLOGICAL TISSUE STAINING REAGENT, BIOLOGICAL TISSUE STAINING KIT AND BIOLOGICAL TISSUE STAINING METHOD” (CUBICStars, Inc., priority 2019, published 2022).

Experiments:
[1] = test system: defatted column of the cerebral cortex area of pig brain; test: Evaluation of antibody penetration efficiency (peak-bottom ratio), anti-synaptophysin antibody; conditions: 2.5% by weight in Immunostaining Buffer E vs distilled water, 32° C., 1 day
Method: After the defatting treatment, the sample was washed with PBS, and soaked in Immunostaining Buffer E that was mixed with a mouse monoclonal anti-synaptophysin antibody (manufactured by Medical & Biological Laboratories Co., Ltd.; #D073-3; 20 μg/mL) and Fab-anti-mouse IgG1 labeled with Alexa 594 (added such that the weight ratio to the anti-synaptophysin antibody was about 1:1) and further supplemented with 2.5% by weight Quadrol or the same amount of distilled water. The sample was stained at 32° C. for 1 day. After the staining, the sample was washed with PB-Triton and PB, and a frozen section in the central portion of the sample was prepared.
FIGS. 18A and B show images of the frozen sections of the samples stained with Immunostaining Buffer E to which distilled water or Quadrol, respectively, was added. […] For quantification, a representative area showing almost uniform staining of the left and right sides of the column was selected using a micrographic image, and a brightness-value graph was prepared. In the graph, the ratio (peak-bottom ratio) of the maximum brightness (peak) in the left and right to the minimum brightness (bottom) in the sample was high in the sample to which Quadrol was not added. […] Thus, using the peak-bottom ratio as a quantitative index of penetrability of an antibody into a tissue, a search was carried out for compounds as follows. […]

[2] = test system: defatted mouse cerebral hemisphere; test: 3D immunostaining with combinations of additives; conditions: Immunostaining Buffer E; antibodies against synaptophysin, Gad67, Dat or Th; 32° C., 3 to 4 days
Source text: Fab-anti-mouse or rabbit IgG against each primary antibody, labeled with Alexa 594 (manufactured by Jackson ImmunoResearch laboratories; Fab-anti-mouse IgG1-[…] (#115-587-185), Fab-anti-mouse IgG2a-[…] (#115-587-186), or Fab-anti-rabbit IgG-[…] (#111-587-008), added such that the weight ratio to each primary antibody was about 1:0.75); and predetermined concentrations of additives (two or three selected from #0854, #1086, and #0609 described in FIG. 1A and #0146 described in FIG. 1B).

SMILES	penetration of the antibody [1]	penetration-promoting effect for the antibodies / staining performance inside the sample [2]
CC(O)CN(CCN(CC(C)O)CC(C)O)CC(C)O (centres unmarked) [Quadrol, N,N,N′,N′-tetrakis(2-hydroxypropyl)ethylenediamine]	penetration of the antibody was effectively increased	–
CN(C)CCOCCO [#0146, 2-[2-(Dimethylamino)ethoxy]ethanol]	–	even stronger penetration-promoting effect
